Data from paper PMC6222843, “Reversal Effect of Oxypeucedanin on P-glycoprotein-mediated Drug Transport” (Molecules : A Journal of Synthetic Chemistry and Natural …, 2018).
Structures can show the parent of a compound that is named as a salt. Where two headings read alike, the source gives them in different places. Values belong to the molecule of their own block, whether it stands above or below them.

Legend:
[1] = Plasma pharmacokinetics of DTX in rats with or without OPD (LC-MS/MS); conditions: male, Sprague-Dawley, rat, po, 50 mg/kg
Description: Ten 8-week-old male Sprague-Dawley rats were randomly divided into the following two groups (5 rats in each group). Group 1: rats were administered a single oral dose of 50 mg/kg of DTX dissolved in 0.5% CMC-Na. […] Blood samples were centrifuged for 10 min at approximately 4000 rpm. 100 µL of plasma was collected from the upper layer, and mixed with 20 µL of taxol internal standard solution for 30 s followed by 500 µL of methanol for 3 min, then centrifuged at 15,000 rpm for 10 min. The supernatant was separated and collected. 5 μL of the supernatant was injected into the LC-MS/MS system for detection and quantification.
Separation was performed on a ZORBAX Extend-C18 (2.1 × 100 mm, 3.5 µm, Agilent, Palo Alto, CA, USA). The column oven was maintained at 25 °C.

MDCK-MDR1 cells = assay: MTT assay, viability of MDCK-MDR1 cells; assay type: cell-based, canine
Description: The effects of OPD and VCR on the viability of MDCK-MDR1 cells were observed by a MTT assay.
MDCK-MDR1 Cells were obtained from Shanghai Zhongya Institute of Biological Genes Institute (CinoAsia Co., Ltd., Shanghai, China). Cells were cultured as previously described. In brief, cells were cultured in high glucose DMEM medium supplemented with 10% fetal bovine serum (FBS), 1% non-essential amino acids, 1% L-glutamine, and a penicillin-streptomycin double antibiotic solution. Cells were incubated at 37 °C with 5% CO2 and cell medium was changed every other day.

P-gp = assay: Western blotting of P-gp protein expression in MDCK-MDR1 cells; assay type: cell-based, canine; conditions: OPD 17.5 and 70 μmol/L for 48 h, in comparison with control group
Description: MDCK-MDR1 cells treated with different concentrations of OPD (3.5, 17.5 and 70 μmol/L) for 48 h were subject to western blotting for determination of P-gp protein level. Cells were washed 3 times with PBS. Total protein was extracted and the protein concentrations were measured according to the manufacturer’s instructions. Cell protein were denatured at 70 °C for 10 min. Protein samples with equivalent amounts were loaded and separated by 10% SDS-polyacrylamide gel electrophoresis and transferred to a polyvinylidene difluoride membranes. Membranes were blocked in 5% powdered non-fat milk solution for 4 h at room temperature and incubated with anti-P-gp primary antibody (GADPH was used as a loading control) overnight at 4 °C followed by an goat anti-mouse IgG secondary antibody (1:5000 dilutions) for 4 h at room temperature. Membranes were incubated with an ECL chromogenic solution for 4 min in the dark. The target protein bands were detected and protein intensity was calculated by a gel imaging system (Beta 3, Bio-Rad, Irvine, CA, USA).

MDR1 = assay: RT-qPCR of MDR1 mRNA expression in MDCK-MDR1 cells; assay type: cell-based, human; conditions: OPD 3.5, 17.5 and 70 μmol/L for 48 h, compared to untreated cells
Description: MDCK-MDR1 cells were cultured for 5 days and treated with different concentrations of OPD (3.5, 17.5 and 70 μmol/L) for 48 h to measure MDR1 gene expression level. The total celluar RNA was extracted by the RNA easy Total RNA mini kit and reverse transcribed to cDNA with reverse transcription kit according to the manufacturer’s protocol. PCR primer design and synthesis were performed by the primer design software provided by Applied Biosystems. Primer sequences for MDR1 and hRpIPIv-F (loading internal control) genes are as follows: human hRpIP1v-F forward, 5′-[…]-3′; human hRpIP1v-F reverse, 5′-[…]-3′; human MDR1 forward, 5′-[…]-3′, human MDR1 reverse, 5′-[…]-3′. PCR amplification was performed using Power SYBR Green PCR Mix according to the manufacturer’s protocol (Life Technologies, Carlsbad, CA, USA).

[2] = target: recombinant human P-gp membranes (Homo sapiens, UniProt P08183); conditions: compared to basal P-gp ATPase activity
Chain of recombinant human P-gp membranes (P08183 whole entry): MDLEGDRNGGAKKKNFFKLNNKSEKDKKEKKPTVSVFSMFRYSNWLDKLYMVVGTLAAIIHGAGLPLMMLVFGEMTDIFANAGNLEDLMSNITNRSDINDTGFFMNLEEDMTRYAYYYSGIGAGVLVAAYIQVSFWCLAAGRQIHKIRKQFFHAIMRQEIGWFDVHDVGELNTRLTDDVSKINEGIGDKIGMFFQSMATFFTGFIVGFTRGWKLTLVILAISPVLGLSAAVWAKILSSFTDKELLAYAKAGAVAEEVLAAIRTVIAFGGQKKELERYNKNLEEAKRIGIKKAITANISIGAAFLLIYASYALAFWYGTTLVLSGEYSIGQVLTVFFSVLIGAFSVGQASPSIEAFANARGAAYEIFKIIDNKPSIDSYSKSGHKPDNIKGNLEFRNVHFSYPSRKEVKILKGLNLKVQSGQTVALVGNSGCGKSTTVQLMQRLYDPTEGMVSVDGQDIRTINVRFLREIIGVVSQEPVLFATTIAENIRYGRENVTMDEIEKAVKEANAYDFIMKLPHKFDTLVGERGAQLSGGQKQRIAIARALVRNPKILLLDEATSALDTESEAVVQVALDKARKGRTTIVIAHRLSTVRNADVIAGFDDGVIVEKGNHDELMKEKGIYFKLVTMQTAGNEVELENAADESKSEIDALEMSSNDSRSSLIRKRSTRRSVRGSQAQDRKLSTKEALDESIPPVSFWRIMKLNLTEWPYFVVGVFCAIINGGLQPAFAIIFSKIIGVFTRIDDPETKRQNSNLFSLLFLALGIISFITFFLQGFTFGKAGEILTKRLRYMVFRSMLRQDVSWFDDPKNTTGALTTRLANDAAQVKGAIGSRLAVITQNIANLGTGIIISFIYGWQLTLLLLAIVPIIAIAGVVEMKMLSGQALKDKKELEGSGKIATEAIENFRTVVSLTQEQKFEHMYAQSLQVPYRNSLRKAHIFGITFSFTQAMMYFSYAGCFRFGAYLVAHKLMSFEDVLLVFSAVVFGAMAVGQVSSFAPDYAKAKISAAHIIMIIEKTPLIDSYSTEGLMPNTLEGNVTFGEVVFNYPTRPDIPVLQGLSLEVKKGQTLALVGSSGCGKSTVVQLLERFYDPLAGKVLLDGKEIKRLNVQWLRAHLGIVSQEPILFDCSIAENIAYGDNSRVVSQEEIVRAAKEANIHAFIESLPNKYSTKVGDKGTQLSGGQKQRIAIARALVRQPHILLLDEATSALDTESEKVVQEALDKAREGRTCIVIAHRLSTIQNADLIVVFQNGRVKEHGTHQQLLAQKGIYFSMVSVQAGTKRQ
Description: P-gp ATPase activity was measured using P-gp-Glo™ assay systems kit according to the manufacturer’s instructions, the method detail of which was also described in our previous study [29]. […] After 40 min, ATP detection reagent was added, respectively. The unconsumed ATP detection reagent reacted with luciferase at room temperature for 20 min and the chemiluminescence intensity was detected. The average relative light units (RLU) was calculated as follows:RLUNa3VO4 − RLUNT = ΔRLUbasal(1) RLUNa3VO4 − RLUTC = ΔRLUTC(2)
ΔRLUbasal, the decrease in luminescence of the untreated group (RLUNT) compared to the Na3VO4 group (RLUNa3VO4), represents the basal P-gp ATPase activity. ΔRLUTC, the decrease in luminescence of the test compound-treated group (RLUTC) compared to the Na3VO4 group (RLUNa3VO4), indicates the P-gp ATPase activity in the presence of the test compound. The decrease in luminescence reflect ATP consumption by P-gp and is proportional to P-gp activity.

[3] = Transport of VCR across MDCK-MDR1 cell monolayer (A→B); assay type: in vitro ADME, canine; conditions: dog, MDCK-MDR1, pH 7.4, VCR 264.46 μmol/L alone, 37 °C, n = 3
Description: Briefly, cell monolayers were pre-incubated in Hank’s buffered salt solution (HBSS, pH 7.4) for 30 min at 37 °C. Trans-epithelial electric resistance (TEER) values of the MDCK-MDR1 cell monolayer ranged from 500 to 800 Ω·cm^2. All drugs were dissolved in DMSO and diluted in HBSS. The final concentration of DMSO is less than 1%. […] After treatments, cells were incubated at 37 °C for 2 h. After 2 h, 500 µL aliquots were taken from the basal side, mixed with 500 µL methanol, vortexed 2 min and then centrifuged for 10 min at 16,000 rpm. The supernatants were collected to measure the concentrations of compounds by high performance liquid-chromatography/mass spectroscopy (LC-MS/MS). Apparent permeability (Papp) values are calculated from the relationship: Papp=dQ/dt/A×C0 where dQ/dt is the cumulative transport rate of the compound on the receiving side (µg/s), A is the surface area of the cell monolayer (cm^2), and C0 is the initial concentration in the donor compartment (µg/mL).

AUC(0-inf) [1]: 306 ± 21.1 ng·h/mL | AUC(0-t) [1]: 276 ± 19.1 ng·h/mL | Cmax [1]: 118 ± 10.9 ng/mL | MRT inf [1]: 4.29 ± 0.98 h | MRT last [1]: 2.96 ± 0.22 h | half-life [1]: 4.13 ± 1.08 h
Structure (SMILES): CC(=O)O[C@@]12CO[C@@H]1C[C@H](O)[C@@]1(C)C(=O)[C@H](O)C3=C(C)[C@@H](OC(=O)[C@H](O)[C@@H](NC(=O)OC(C)(C)C)c4ccccc4)C[C@@](O)([C@@H](OC(=O)c4ccccc4)[C@H]21)C3(C)C [DTX, Docetaxel]

increase in P-gp ATPase activity ([2]; OPD 3.5 μmol/L): 0.55 fold | increase in P-gp ATPase activity ([2]; OPD 17.5 μmol/L): 0.31 fold | increase in P-gp ATPase activity ([2]; OPD 70 μmol/L): 0.50 fold
Structure (SMILES): CC1(C)O[C@H]1COc1c2ccoc2cc2oc(=O)ccc12 [OPD, Oxypeucedanin]
cytotoxicity (viability of MDCK-MDR1 cells, MTT assay) (MDCK-MDR1 cells; OPD 3.82, 19.08, 76.30 μmol/L): no obvious cytotoxicity | P-gp protein expression (P-gp): obvious reduction | mRNA expression of MDR1 (MDR1): significantly downregulated

Papp A→B at 2 h, 264.46 μmol/L [3]: 0.37 ± 0.04 ×10⁻⁶ cm/s
Structure (SMILES): CC[C@]1(O)C[C@H]2CN(CCc3c([nH]c4ccccc34)[C@@](C(=O)OC)(c3cc4c(cc3OC)N(C=O)[C@H]3[C@@](O)(C(=O)OC)[C@H](OC(C)=O)[C@]5(CC)C=CCN6CC[C@]43[C@@H]65)C2)C1 [VCR, Vincristine sulfate]
cytotoxicity (viability of MDCK-MDR1 cells, MTT assay) (MDCK-MDR1 cells; VCR 264.46 μmol/L): no obvious cytotoxicity
